From ChEMBL document CHEMBL3992523, “Potent Inhibition of Nitric Oxide-Releasing Bifendate Derivatives against Drug-Resistant K562/A02 Cells in Vitro and in Vivo” (J Med Chem, 2017)
Activity calls are given as the source filed them. No cut-off for these calls is given here.

Key:
[1] = Drug metabolism in P-gp overexpressing/drug resistant human K562/A02 cells assessed as nitric oxide production at 100 uM measured at 240 mins by Griess assay; format: ADME, cell-based; details: k562/a02, 4 h
[2] = biological target: RAC-alpha serine/threonine-protein kinase (Homo sapiens) (UniProt P31749); experiment: Inhibition of AKT phosphorylation in P-gp overexpressing/drug resistant human K562/A02 cells at 8 uM after 24 hrs by Western blot analysis
K562 [3] = experiment: Anti-proliferative activity against human K562 cells measured after 72 hrs by MTS assay; format: functional, cell-based; details: K562, 72 h
Mus musculus [4] = experiment: Toxicity in BALB/c nude mouse assessed as effect on survival at 1000 mg/kg, iv measured up to 14 days; format: organism-based; details: in vivo, 336 h
K562/A02 [5] = experiment: Down regulation of HIF-alpha expression in P-gp overexpressing/drug resistant human K562/A02 cells at 1 uM measured after 48 hrs by Western blot analysis; format: functional, cell-based
K562/A02 [6] = experiment: Antitumor activity against P-gp overexpressing/drug resistant human K562/A02 cells xenografted in BALB/c nude mouse assessed as reduction in tumor weight at 120 mg/kg, iv administered every other day for 21 days measured post last dose; format: functional, organism-based
K562/A02 [7] = experiment: Induction of nitration of mitochondrial cytochrome c in P-gp overexpressing/drug resistant human K562/A02 cells at 10 uM in presence of hemoglobin measured after 24 hrs by Western blot analysis; format: functional, cell-based
Mus musculus [8] = experiment: Toxicity in BALB/c nude mouse assessed as abnormality in eating at 1000 mg/kg, iv measured up to 14 days; format: organism-based; details: in vivo, 336 h
Homo sapiens [9] = species: Homo sapiens; experiment: Inhibition of NF-kappaB phosphorylation in human K562/A02 cells at 2 uM in presence of hemoglobin measured after 24 hrs by Western blot analysis; format: cell-based
Homo sapiens [10] = species: Homo sapiens; experiment: Inhibition of ERK phosphorylation in human K562/A02 cells at 1 uM measured after 48 hrs by Western blot analysis; format: cell-based
K562/A02 [11] = experiment: Anti-proliferative activity against P-gp overexpressing/drug resistant human K562/A02 cells assessed as decrease in cell survival at 1 uM in presence of hemoglobin measured after 24 hrs by MTS assay; format: functional, cell-based
Homo sapiens [12] = species: Homo sapiens; experiment: Inhibition of ERK phosphorylation in P-gp overexpressing/drug resistant human K562/A02 cells at 8 uM after 24 hrs by Western blot analysis
[13] = Drug metabolism in P-gp overexpressing/drug resistant human K562/A02 cells assessed as nitric oxide production at 20 uM by DAF-FMDA staining based fluorescent microscopic analysis; format: ADME, cell-based; details: k562/a02, 20 µM, TDE = time-dependent effect
[14] = biological target: RAC-alpha serine/threonine-protein kinase (Homo sapiens) (UniProt P31749); experiment: Inhibition of AKT phosphorylation in human K562/A02 cells at 2 uM in presence of hemoglobin measured after 24 hrs by Western blot analysis; format: cell-based
Mus musculus [15] = experiment: Toxicity in BALB/c nude mouse assessed as change in body weight at 1000 mg/kg, iv measured up to 14 days; format: organism-based; details: in vivo, 336 h
Mus musculus [16] = experiment: Induction of nitration of mitochondrial cytochrome c in tumor of iv dosed BALB/c nude mouse xenografted with P-gp overexpressing/drug resistant human K562/A02 cells administered every other day for 21 days by Western blot analysis; format: functional, organism-based
Homo sapiens [17] = species: Homo sapiens; experiment: Induction of nitration of P-gp in P-gp overexpressing/drug resistant human K562/A02 cells at 10 uM measured after 24 hrs by Western blot analysis
K562/A02 [18] = experiment: Antitumor activity against P-gp overexpressing/drug resistant human K562/A02 cells xenografted in BALB/c nude mouse assessed as tumor growth inhibition at 120 mg/kg, iv administered every other day for 21 days measured post last dose relative to control; format: functional; details: 504 h, read-out: TGI
Homo sapiens [19] = species: Homo sapiens; experiment: Effect on P-gp ATPase activity in human K562/A02 cell membranes assessed as remaining ATP level by measuring relative light units at 40 uM in presence of MgATP measured after 40 mins by luminescence based P-gp-Glo assay (reference value: 216508 +/- 7426 RLU)
Homo sapiens [20] = species: Homo sapiens; experiment: Inhibition of NF-kappaB phosphorylation in human K562/A02 cells at 1 uM measured after 48 hrs by Western blot analysis; format: cell-based
Mus musculus [21] = experiment: Toxicity in BALB/c nude mouse assessed as abnormality in drinking at 1000 mg/kg, iv measured up to 14 days; format: organism-based; details: in vivo, 336 h
K562 [22] = experiment: Effect on rhodamine123 accumulation in human K562 cells at 0.33 to 10 uM measured after 1 hr by flow cytometry; format: functional, cell-based
K562/A02 [23] = experiment: Effect on P-gp expression in P-gp overexpressing/drug resistant human K562/A02 cells up to 8 uM by RT-PCR method; format: functional, cell-based
Homo sapiens [24] = species: Homo sapiens; experiment: Inhibition of NF-kappaB phosphorylation in P-gp overexpressing/drug resistant human K562/A02 cells at 8 uM after 24 hrs by Western blot analysis
K562/A02 [25] = experiment: Antitumor activity against P-gp overexpressing/drug resistant human K562/A02 cells xenografted in BALB/c nude mouse assessed as reduction in tumor volume at 120 mg/kg, iv administered every other day for 21 days measured every other day during dosing; format: functional, organism-based
[26] = biological target: RAC-alpha serine/threonine-protein kinase (Homo sapiens) (UniProt P31749); experiment: Inhibition of AKT phosphorylation in human K562/A02 cells at 1 uM measured after 48 hrs by Western blot analysis; format: cell-based
K562/A02 [27] = experiment: Down regulation of HIF-alpha expression in P-gp overexpressing/drug resistant human K562/A02 cells at 8 uM after 24 hrs by Western blot analysis; format: functional, cell-based
Homo sapiens [28] = species: Homo sapiens; experiment: Induction of nitration of P-gp in P-gp overexpressing/drug resistant human K562/A02 cells at 10 uM in presence of hemoglobin measured after 24 hrs by Western blot analysis
Homo sapiens [29] = species: Homo sapiens; experiment: Inhibition of ERK phosphorylation in human K562/A02 cells at 2 uM in presence of hemoglobin measured after 24 hrs by Western blot analysis; format: cell-based
K562/A02 [30] = experiment: Effect on P-gp expression in P-gp overexpressing/drug resistant human K562/A02 cells up to 8 uM by Western blot analysis; format: functional, cell-based
[31] = Resistant factor, ratio of IC50 for P-gp overexpressing/drug resistant human K562/A02 cells to IC50 for human K562 cells; format: functional
[32] = Drug metabolism in P-gp overexpressing/drug resistant human K562/A02 cells assessed as nitric oxide production at 100 uM in presence of hemoglobin measured over 30 to 300 mins by Griess assay; format: ADME, cell-based; details: k562/a02, 100 µM
[33] = Drug metabolism in P-gp overexpressing/drug resistant human K562/A02 cells assessed as nitric oxide production at 20 uM up to 6 hrs by Griess assay; format: ADME, cell-based; details: k562/a02, 6 h
Homo sapiens [34] = species: Homo sapiens; experiment: Inhibition of P-gp in human K562/A02 cells assessed as increase in intracellular rhodamine123 accumulation at 0.33 to 10 uM measured after 1 hr by flow cytometry; format: cell-based
K562/A02 [35] = experiment: Induction of nitration of mitochondrial cytochrome c in P-gp overexpressing/drug resistant human K562/A02 cells at 10 uM measured after 24 hrs by Western blot analysis; format: functional, cell-based
[36] = Permeability in human Caco2 cells assessed as concentration ratio of basolateral to apical side at 100 uM measured at 10 mins post dose by HPLC analysis; format: ADME, cell-based; details: caco-2, 10 min
[37] = Permeability in human Caco2 cells assessed as concentration ratio of basolateral to apical side at 100 uM measured at 5 mins post dose by HPLC analysis; format: ADME, cell-based; details: caco-2, 5 min
Mus musculus [38] = experiment: Toxicity in P-gp overexpressing/drug resistant human K562/A02 cells xenografted BALB/c nude mouse assessed as change in body weight at 120 mg/kg, iv administered every other day for 21 days measured on day 2,4,6,8,10,12,14,16,18,20,22 of dosing; format: organism-based; details: in vivo, 504 h
K562/A02 [39] = experiment: Anti-proliferative activity against P-gp overexpressing/drug resistant human K562/A02 cells measured after 72 hrs by MTS assay; format: functional, cell-based; details: K562/A02, 72 h
K562/A02 [40] = experiment: Down regulation of HIF-alpha expression in human K562/A02 cells at 2 uM in presence of hemoglobin measured after 24 hrs by Western blot analysis; format: functional, cell-based

Sequence of RAC-alpha serine/threonine-protein kinase (Homo sapiens) (P31749 whole entry): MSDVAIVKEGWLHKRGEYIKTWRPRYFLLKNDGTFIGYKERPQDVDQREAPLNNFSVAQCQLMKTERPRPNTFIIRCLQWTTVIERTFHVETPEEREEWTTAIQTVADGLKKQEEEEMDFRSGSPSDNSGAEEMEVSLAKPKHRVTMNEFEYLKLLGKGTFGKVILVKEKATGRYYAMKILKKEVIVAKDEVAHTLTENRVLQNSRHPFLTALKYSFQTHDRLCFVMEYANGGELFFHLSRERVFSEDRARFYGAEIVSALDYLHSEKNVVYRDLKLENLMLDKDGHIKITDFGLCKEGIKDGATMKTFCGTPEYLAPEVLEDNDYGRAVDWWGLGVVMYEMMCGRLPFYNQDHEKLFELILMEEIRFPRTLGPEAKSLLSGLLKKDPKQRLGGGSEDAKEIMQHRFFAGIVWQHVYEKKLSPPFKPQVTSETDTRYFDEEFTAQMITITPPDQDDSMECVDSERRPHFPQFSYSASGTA

In the case of `COC(=O)c1cc(OC)c2c(c1-c1c(C(=O)OC3CCN(CC(=O)OCCCCOc4no[n+]([O-])c4S(=O)(=O)c4ccccc4)CC3)cc(OC)c3c1OCO3)OCO2`, the Drug metabolism [1] is reported as “Metabolite_Detected”, the inhibition [2] is reported as “Active” and the IC50 (K562 [3]) is reported as 690 nM. For the same molecule, the Activity (Mus musculus [4]) was “Non-Toxic”, the Activity (K562/A02 [5]) was “Active” and the Activity (K562/A02 [6]) was “Active”. The Activity (K562/A02 [7]) was “inactive”, the Activity (Mus musculus [8]) was “Non-Toxic” and the inhibition (Homo sapiens [9]) was “inactive”. The inhibition (Homo sapiens [10]) was “Active”, the Activity (K562/A02 [11]) was “inactive” and the inhibition (Homo sapiens [12]) was “Active”. For the same molecule, the Drug metabolism [13] was “Tde”, the inhibition [14] was “inactive” and the Activity (Mus musculus [15]) was “Non-Toxic”. For the same molecule, the Activity (Mus musculus [16]) was “Dose-dependent effect”, the Activity (Homo sapiens [17]) was “Active” and the inhibition in vivo at 120 mg/kg (K562/A02 [18]) was 51.4%. The Activity (Homo sapiens [19]) was 241000 RLU, the inhibition (Homo sapiens [20]) was “Active” and the Activity (Mus musculus [21]) was “Non-Toxic”. The Activity (K562 [22]) was “inactive”, the Activity (K562/A02 [23]) was “inactive” and the inhibition (Homo sapiens [24]) was “Active”. For the same molecule, the Activity (K562/A02 [25]) was “Active”, the inhibition [26] was “Active” and the Activity (K562/A02 [27]) was “Active”. The Activity (Homo sapiens [28]) was “inactive”, the inhibition (Homo sapiens [29]) was “inactive” and the Activity (K562/A02 [30]) was “inactive”. For the same molecule, the “Ratio IC50” value [31] was 0.8, the Drug metabolism [32] was “Metabolite_Notdetected” and the Drug metabolism [33] was “Metabolite_Detected”. For the same molecule, the inhibition (Homo sapiens [34]) was “Active”, the Activity (K562/A02 [35]) was “Active” and the Ratio [36] was 0.53. For the same molecule, the Ratio [37] was 0.14, the Activity (Mus musculus [38]) was “Non-Toxic” and the IC50 (K562/A02 [39]) was 550 nM. For the same molecule, the Activity (K562/A02 [40]) was “inactive”.
